One data set has as its system DsRedCAG0 Drosophila. Nature of the data set: Pseudopupil assay in DsRedCAG0 control Drosophila (toxicity of peptide). It counts as in vivo. The note with it: up to 50 μM. The method, then:
Because of the aim to develop P3V8 into a potent inhibitor that targets RNA toxicity in degenerating cells within the nervous system, it was assessed whether P3V8 had deleterious effects on neuronal cells by determining lactate dehydrogenase release in the culturing medium of rat cortical neurons.
Flies were raised at 21.5° C. on cornmeal medium supplemented with dry yeast. Fly lines bearing UAS-DsRedCAG0 and UAS-DsRedCAG100 were kind gifts of Professor Nancy Bonini (University of Pennsylvania, USA). The gmr-GAL4 fly line was obtained from Bloomington Drosophila Stock Center. For pseudopupil assay, third instar larvae were fed with various amount of respective peptides dissolved in 2% sucrose solution for 2 hr and then continued to culture in standard fly food at 21.5° C.^38. Pseudopupil assay was performed on 12 day-old adult flies as mentioned previously^39. Images were captured by SPOT Insight CCD camera controlled by the SPOT Advanced software (Diagnostic instruments Inc.). Image processing was performed using the Adobe Photoshop CS software (Adobe). Each experiment was repeated at least 3 times (n=10 fly heads), and consistent results were obtained. […] Viability from egg-to-adult was calculated as the number of adult flies collected divided by the number of eggs examined. […]

Data set [1] in a line: Plasma pharmacokinetic study in SD rat. The note with it: for AUC0-last: Intranasal administration (pre-treated with 0.5% chitosan). The method, then: SD rats (180-200 g) were anesthetized with an intraperitoneal injection of ketamine (60 mg/kg) and xylazine (6 mg/kg) and received a minor surgery of cannulation with a polythene tube (0.4 mm i.d., 0.8 mm o.d., Harvard Apparatus, Holliston, Mass., USA) in the left jugular vein. The rats received an overnight recovery with free access to food and water. […] For the pharmacokinetic study, after the drug administration, blood samples were collected from the catheter at appropriate time intervals (2, 5, 10, 15, 20, 30, 45, 60, and 90 min). After each collection, 0.2 mL of saline containing 25 IU heparin was injected to compensate for the blood loss. Plasma was collected after centrifugation at 8000 rcf for 3.5 min and stored at −80° C. until analysis. For brain uptake study, at 20 min, the rat was anesthetized and perfused by 500 mL saline, and the whole brain was collected. The brain was wiped by tissue paper to remove excess water, meninges and blood vessels followed by storage at −80° C. until analysis.
Aliquot of plasma sample (80 μL) was mixed with 160 μL acetonitrile. The mixture was vortexed for 1 min and followed by centrifugation at 13000 rcf for 10 min. The supernatant was collect and subjected to LC/MS/MS analysis.
Agilent 6430 Triple Quadrupole LC/MS/MS system (Agilent Technologies, CA, USA) was employed for the analysis. For analysis of P3V8, chromatographic separation was achieved on a SunFire C8 Column (250 mm×4.6 mm, 5 μm). The mobile phase of water containing 0.2% formic acid (A) and acetonitrile (B) was used with a gradient elution (0-5 min, 20-70% B). The flow rate was 0.8 mL/min. Multiple reactions monitoring (MRM) with fragmentation transition of 500 to 129 in positive ion mode was employed for quantization of P3V8. […] Mobile phase of water (A) and acetonitrile (B) was used. The gradient elution for plasma samples was 0-4 min, 30-95% B, and for brain samples was 0-9 min, 10-95% B. The flow rate was 0.8 mL/min.
Plasma concentration verse time profiles were analyzed by WinNonlin (Pharsight Corporation, Mountain View, Calif., USA, Version 2.1) to obtain the pharmacokinetics parameters. Other data were analyzed by one-way ANOVA followed by post hoc Tukey test or unpaired t-test. “*”, “**”, “***” and “****” represent P<0.05, P<0.01, P<0.001 and P<0.0001 respectively, which are considered statistically significant.

The test system of another data set is DsRedCAG100 flies. Nature of the data set: Pseudopupil assay in DsRedCAG100 Drosophila (expanded CAG RNA neurodegeneration). In kind it is in vivo. The note with it: for suppression of neurotoxicity / retinal degeneration: DsRedCAG100 flies, in words. The source says: Here the DsRedCAG0/100Drosophila model was utilized to investigate the suppressive effects of the P3 analogs on RNA toxicity. In this model, the CAG repeat is located in the 3′ untranslated region of the DsRed reporter gene-=. The transcribed expanded CAG RNA is not translated into polyQ protein, and thus the toxicity is solely attributed to the expression of DsRedCAG100 RNA. In brief, the expression of expanded CAG RNA causes severe retinal degeneration in the animal that can be quantified by a pseudopupil assay^7. Inhibitors that can suppress neurotoxicity will result in the recovery of the number of rhabdomeres within the ommatidium. To test the derivatives, third instar larvae were fed different amounts of peptide dissolved in sucrose solution for 2 hr and then allowed to culture in standard fly food until the flies were 12 days old, at which time they were sacrificed for the pseudopupil assay.
Flies were raised at 21.5° C. on cornmeal medium supplemented with dry yeast. Fly lines bearing UAS-DsRedCAG0 and UAS-DsRedCAG100 were kind gifts of Professor Nancy Bonini (University of Pennsylvania, USA). The gmr-GAL4 fly line was obtained from Bloomington Drosophila Stock Center. For pseudopupil assay, third instar larvae were fed with various amount of respective peptides dissolved in 2% sucrose solution for 2 hr and then continued to culture in standard fly food at 21.5° C.^38. Pseudopupil assay was performed on 12 day-old adult flies as mentioned previously^39. Images were captured by SPOT Insight CCD camera controlled by the SPOT Advanced software (Diagnostic instruments Inc.). Image processing was performed using the Adobe Photoshop CS software (Adobe). Each experiment was repeated at least 3 times (n=10 fly heads), and consistent results were obtained. For viability test of wild-type flies from egg to adult stage, eggs born within 5 hr were collected and cultured in fly food containing 10 or 50 μM of respective peptides at 21.5° C. Viability from egg-to-adult was calculated as the number of adult flies collected divided by the number of eggs examined. Each experiment was repeated for three times (at least 130 eggs were examined in each group). Two batches of independently synthesized peptides were used in the experiments.

Data set [2] has as its system EGFPCAG78 RNA-expressing HEK293 cells. In kind it is cell-based. As to the method: HEK293 cells were cultured at 37° C. with 5% CO2 in DMEM supplemented with 10% FBS and 1% penicillin-streptomycin. Primary rat cortical neurons were isolated and cultured as previously described^37. Transient transfection of HEK293 cells was performed using Lipofectamine 2000 (Life Technologies). P3V8 were delivered to HEK293 cells using the DeliverX (DX) Peptide Transfection Kit (Affymetrix) 4 hr after DNA transfection. At least two batches of independently synthesized peptides were used in the experiments.
HEK 293 cells were seeded on a 24-well plate at a density of 0.5×10^5, and pEGFPCAG78 DNA construct was used to transfect the cells. For P3V8 treatment, different concentrations of P3V8 as indicated in the figure were transfected by DeliverX transfectant 4 hr after DNA transfection. […] Seventy-two hours after treatment, LDH enzyme activity in the cell culture medium was measured as described before. Experimental groups were normalized to the untransfected control. After normalization, data were analyzed using the dose response-inhibition curve (nonlinear regression-variable slope) to determine the IC50 value (Prism6 software, GraphPad Software, Inc.). Each experiment was repeated at least 3 times.

[3] abbreviates: Intravenous administration, 3 μmol/kg, SD rats.

Marks after values point to notes of the source that are not given here. Residues, ends and D or L forms follow the SMILES beside them. *: point of attachment. Palmitoyl = CCCCCCCCCCCCCCCC(=O)*

For `CCCCCCCCCCCCCCCC(=O)N[C@@H](CC(=O)O)C(=O)NCC(=O)N[C@@H](CCCCN)C(=O)N[C@@H](CO)C(=O)N[C@@H](CCCCN)C(=O)NCC(=O)N[C@H](C(=O)N[C@@H](C)C(=O)N[C@@H](Cc1ccc(O)cc1)C(=O)N[C@H](C(=O)N[C@@H](CCC(=O)O)C(=O)N[C@@H](Cc1ccccc1)C(=O)N[C@@H](CCCCN)C(N)=O)[C@@H](C)CC)[C@@H](C)CC` [L1P3V8] (Palmitoyl-DGKSKGIAYIEFK-NH2), the “effect on DsRedCAG0 Drosophila” value in the data set on DsRedCAG0 Drosophila is “no cytotoxic effects”. The AUC0-last in data set [1] (3 μmol/kg, SD rats) is listed as 2277 ± 558*** min * nmol/L. Further, in data set [1] (setting [3]), the highest concentration (Cmax) (commonly the maximum level reached in the sampled fluid or tissue) is 10400 ± 1220 nM and the T1/2 was determined as 17 min. In addition, in data set [1] (intravenous, 3 μmol/kg), the “plasma concentration 90 min after dosing” value was determined as 190 nM. In addition, in the data set with DsRedCAG100 flies, the “suppression of neurotoxicity / retinal degeneration” value is “suppressed retinal degeneration”. The IC50 (usually the concentration needed to halve the response being measured) in data set [2] (72 hr, read-out: IC50 (inhibition of cell death, LDH)) is approximately 100 nM.
As for Ac-DGKSKGIAYIEFK-NH2 [P3V8], in the data set on DsRedCAG0 Drosophila, the “effect on DsRedCAG0 Drosophila” value is on record as “did not show any observable effect”. In addition, the AUC0-last in data set [1] (3 μmol/kg, SD rats) is 85 ± 32 nmol·min/L. Besides, the Cmax in data set [1] (setting [3]) was determined as 452 ± 22 nM. For the same molecule, the T1/2 entry in data set [1] (rat, in vivo, iv, 3 umol/kg) is given as “too short to be determined”. Besides, the pseudopupil score in the data set with DsRedCAG100 flies (1 μM treatment, 12 day-old flies) was 4.32±0.25. Besides, the “suppression of neurotoxicity / retinal degeneration” value in the data set with DsRedCAG100 flies is given as “significantly suppressed neurotoxicity”. Moreover, in data set [2], the “effect on expanded CAG RNA-induced cytotoxicity” value was “effectively alleviate the cytotoxicity”. Moreover, in data set [2] (peptide alone, without DeliverX), the “effect on expanded CAG RNA-induced cell death” value is on record as “did not exert any cellular effect”.

The values are drawn from patent US10570177B2, “P3 peptidylic inhibitors for treating CAG-repeat RNA toxicity in polyglutamine diseases” (The Chinese University of Hong Kong, priority 2017, dated 2020).
